Data on five compounds can be found in patent US20260098034A1, “2H-BENZOTRIAZOLE DERIVATIVE, PREPARATION METHOD THEREFOR, AND PHARMACEUTICAL COMPOSITION CONTAINING SAME” (ORXES THERAPEUTICS CO., LTD., priority 2022, published 2026).

In this experiment the test system is Wistar rats. The experiment is described as follows: PCA-induced Wistar rat premature ejaculation model. In kind it is in vivo. The note with it: for Actual number of ejaculations / Number of the seminal vesicle contractions / Seminal vesicle basal pressure / Seminal vesicle peak pressure / The first contraction latency period / The first ejaculation latency period: within 30 min after PCA induction, individual rats; for latency period of initial seminal vesicle contraction compared with the PE model group: FIG. 4. The procedure:
Male Wistar rats with a weight of about 300 g were adapted for one week before the experiment was started. On the day of the experiment, the animals were anesthetized with a combination of 20 mg/kg of Zoletil 50 via i.p. and 8 mg/kg of xylazine via i.p., and the body temperature was maintained at 37° C. with a thermal insulation blanket. Exposed common carotid artery was intubated with PE50 to monitor real-time arterial pressure (i.e. systolic pressure, diastolic pressure, and mean arterial pressure). The seminal vesicles and cavernosal muscles of the animals were exposed. The stable baselines of the pressure of the seminal vesicle and the cavernosal myoelectricity were recorded for 10 min. Then the drug was administered through the tail vein for the dapoxetine group, and the tested compound was orally administered for the tested compound group (for the PE model group, the drug was replaced with a solvent). After 1 min, for inducing PE modeling, 5 mg/kg of PCA was injected intraperitoneally, and then the seminal vesicle pressure curve and the change of bulbospongiosus EMG were continuously recorded for 30 min.
• A. Within 30 min, the actual number of ejaculations of the animals and the latency period of the first ejaculation; • B. Within 30 min, the number of the seminal vesicle contractions, the latency period of the first contraction, the basal pressure and the peak pressure.
The experimental data were expressed by means±S.E.M., and statistical analysis was performed by GraphPad Prism 7.0 software. Single factor variance analysis (One-way ANOVA) was used for comparison between multiple groups, and Dunnett't-test was used for statistical analysis in Post hoc test. Student's t-test was used for comparison between two groups. P<0.05 was considered as a significant difference.

The mark [1] stands for this setting: 0.125 mg/kg p.o. + PCA 5 mg/kg i.p.
Setting [2] is: 0.5 mg/kg p.o. + PCA 5 mg/kg i.p.
[3] abbreviates: 2 mg/kg p.o. + PCA 5 mg/kg i.p.

“And” between values parts separate entries of the source, which are not always exact repeats. Identical values can stand only once.

As for `c1ccc2nn(CCCCN3CCN(c4noc5ccccc45)CC3)nc2c1` [Compound A001], under setting [1], the “Actual number of ejaculations” value was 8 and 9 and 11 (2×) and 10; the “Number of the seminal vesicle contractions” value is 10 and 11 and 12 and 13 and 16; the “Seminal vesicle basal pressure” value is 6.69 mmHg and 7.04 mmHg and 7.28 mmHg and 6.91 mmHg and 7.78 mmHg; the “Seminal vesicle peak pressure” value is 17.17 mmHg and 21.45 mmHg and 22.67 mmHg and 23.39 mmHg and 20.58 mmHg. In addition, under setting [1], the “The first contraction latency period” value was 784 s and 788 s and 605 s and 517 s and 839 s; the “The first ejaculation latency period” value was 996 s and 726 s and 766 s and 823 s and 969 s. For the same compound, under setting [2], the “Actual number of ejaculations” value is 0 (2×) and 2 (2×) and 3; the “Number of the seminal vesicle contractions” value is 0 (2×) and 5 and 4 and 6; the “Seminal vesicle basal pressure” value is 3.88 mmHg and 4.19 mmHg and 5.77 mmHg and 5.08 mmHg and 5.68 mmHg; the “Seminal vesicle peak pressure” value is 4.89 mmHg and 5.09 mmHg and 11.06 mmHg and 16.57 mmHg and 14.89 mmHg. In addition, under setting [2], the “The first contraction latency period” value was 1800 s (2×) and 1298 s and 1147 s and 1125 s; the “The first ejaculation latency period” value was 1800 s (2×) and 1399 s and 1311 s and 1291 s. Besides, under setting [3], the “Actual number of ejaculations” value was 2 and 0 (4×); the “Number of the seminal vesicle contractions” value was 4 and 0 and 1 (3×); the “Seminal vesicle basal pressure” value was 6.88 mmHg and 4.68 mmHg and 4.38 mmHg and 4.92 mmHg and 3.98 mmHg; the “Seminal vesicle peak pressure” value was 18.65 mmHg and 6.99 mmHg and 6.07 mmHg and 7.32 mmHg and 6.05 mmHg. Under setting [3], the “The first contraction latency period” value was 968 s and 1800 s and 1687 s and 1774 s and 1629 s; the “The first ejaculation latency period” value was 1055 s and 1800 s (4×).

As for `Fc1ccc2c(C3CCN(CCCn4nc5ccccc5n4)CC3)noc2c1` [Compound A002], under setting [1], the “Actual number of ejaculations” value was 2 (2×) and 6 and 3 and 5; the “Number of the seminal vesicle contractions” value is 5 (2×) and 6 (2×) and 3; the “Seminal vesicle basal pressure” value was 5.88 mmHg and 6.10 mmHg and 6.02 mmHg and 4.66 mmHg and 3.97 mmHg; the “Seminal vesicle peak pressure” value is 12.33 mmHg and 16.17 mmHg and 18.07 mmHg and 12.06 mmHg and 9.88 mmHg. For the same compound, under setting [1], the “The first contraction latency period” value was 1266 s and 833 s and 825 s and 1198 s and 1499 s; the “The first ejaculation latency period” value is 1422 s and 933 s and 966 s and 1276 s and 1345 s. Further, under setting [2], the “Actual number of ejaculations” value was 2 and 3 and 1 and 0 (2×); the “Number of the seminal vesicle contractions” value was 3 and 4 and 2 and 0 (2×); the “Seminal vesicle basal pressure” value is 5.76 mmHg and 5.88 mmHg and 5.79 mmHg and 3.67 mmHg and 3.87 mmHg; the “Seminal vesicle peak pressure” value is 12.54 mmHg and 11.66 mmHg and 7.05 mmHg and 4.27 mmHg and 5.11 mmHg. Besides, under setting [2], the “The first contraction latency period” value is 1176 s and 1307 s and 1355 s and 1800 s (2×); the “The first ejaculation latency period” value was 1233 s and 1346 s and 1432 s and 1800 s (2×). Under setting [3], the “Actual number of ejaculations” value amounted to 0; the “Number of the seminal vesicle contractions” value is 2 and 0 (4×); the “Seminal vesicle basal pressure” value was 4.15 mmHg and 4.12 mmHg and 4.85 mmHg and 4.11 mmHg and 3.93 mmHg; the “Seminal vesicle peak pressure” value is 8.87 mmHg and 6.08 mmHg and 5.09 mmHg and 4.77 mmHg and 5.03 mmHg. Under setting [3], the “The first contraction latency period” value was 1568 s and 1800 s (4×); the “The first ejaculation latency period” value stood at 1800 s. Further, the “latency period of initial seminal vesicle contraction compared with the PE model group” value (high dose group (2.0 mg/kg p.o.)) was “significant increase”. Further, the “latency period of initial seminal vesicle contraction compared with the PE model group” value (low dose group (0.125 mg/kg p.o.), P>0.05) was “no statistically significant differences”. Also, for the setting “medium dose group (0.5 mg/kg p.o.)”, the “latency period of initial seminal vesicle contraction compared with the PE model group” value is given as “significant increase”.

In the case of `Fc1ccc2c(C3CCN(CCCCn4nc5ccccc5n4)CC3)noc2c1` [Compound A003], under setting [1], the “Actual number of ejaculations” value was 0 (2×) and 4 (2×) and 5; the “Number of the seminal vesicle contractions” value is 3 (2×) and 8 (2×) and 7; the “Seminal vesicle basal pressure” value was 3.97 mmHg and 3.78 mmHg and 5.98 mmHg and 5.59 mmHg and 5.17 mmHg; the “Seminal vesicle peak pressure” value was 4.08 mmHg and 4.25 mmHg and 16.58 mmHg and 14.17 mmHg and 18.06 mmHg. Moreover, under setting [1], the “The first contraction latency period” value is 1458 s and 1525 s and 707 s and 658 s and 735 s; the “The first ejaculation latency period” value is 1800 s (2×) and 865 s and 778 s and 806 s. Under setting [2], the “Actual number of ejaculations” value was 6 (2×) and 2 and 0 (2×); the “Number of the seminal vesicle contractions” value is 9 (2×) and 5 and 0 (2×); the “Seminal vesicle basal pressure” value is 5.88 mmHg and 6.03 mmHg and 5.19 mmHg and 3.9 mmHg and 4.2 mmHg; the “Seminal vesicle peak pressure” value is 18.97 mmHg and 20.11 mmHg and 12.84 mmHg and 4.09 mmHg and 4.76 mmHg. Under setting [2], the “The first contraction latency period” value is 778 s and 814 s and 1009 s and 1800 s (2×); the “The first ejaculation latency period” value was 845 s and 903 s and 1175 s and 1800 s (2×). Moreover, under setting [3], the “Actual number of ejaculations” value is 0; the “Number of the seminal vesicle contractions” value is 1 and 0 (4×); the “Seminal vesicle basal pressure” value is 4.65 mmHg and 4.17 mmHg and 4.55 mmHg and 4.62 mmHg and 3.92 mmHg; the “Seminal vesicle peak pressure” value is 8.13 mmHg and 5.24 mmHg and 4.9 mmHg and 4.89 mmHg and 4.86 mmHg. Under setting [3], the “The first contraction latency period” value was 1623 s and 1800 s (4×); the “The first ejaculation latency period” value was found to be 1800 s.

As for `c1ccc2nn(CCCN3CCN(c4nsc5ccccc45)CC3)nc2c1` [Compound A004], under setting [1], the “Actual number of ejaculations” value was 0 (2×) and 3 and 6 and 4; the “Number of the seminal vesicle contractions” value is 3 and 4 and 8 and 6 and 2; the “Seminal vesicle basal pressure” value was 4.09 mmHg and 5.98 mmHg and 5.59 mmHg and 5.17 mmHg and 4.18 mmHg; the “Seminal vesicle peak pressure” value is 4.21 mmHg and 13.38 mmHg and 16.13 mmHg and 15.05 mmHg and 4.25 mmHg. In addition, under setting [1], the “The first contraction latency period” value was 1400 s and 797 s and 757 s and 735 s and 1525 s; the “The first ejaculation latency period” value was 1800 s (2×) and 865 s and 678 s and 806 s. In addition, under setting [2], the “Actual number of ejaculations” value was 5 and 6 and 2 and 0 (2×); the “Number of the seminal vesicle contractions” value is 7 and 8 and 3 and 0 (2×); the “Seminal vesicle basal pressure” value was 5.89 mmHg and 6.07 mmHg and 5.18 mmHg and 3.99 mmHg and 4.32 mmHg; the “Seminal vesicle peak pressure” value was 17.95 mmHg and 29.19 mmHg and 13.88 mmHg and 4.79 mmHg and 4.77 mmHg. Also, under setting [2], the “The first contraction latency period” value is 798 s and 819 s and 1009 s and 1800 s (2×); the “The first ejaculation latency period” value is 845 s and 903 s and 1175 s and 1800 s (2×). Under setting [3], the “Actual number of ejaculations” value is recorded as 0; the “Number of the seminal vesicle contractions” value is listed as 0; the “Seminal vesicle basal pressure” value is 4.68 mmHg and 4.67 mmHg and 4.65 mmHg and 4.66 mmHg and 3.97 mmHg; the “Seminal vesicle peak pressure” value was 5.18 mmHg and 5.26 mmHg and 4.96 mmHg and 4.79 mmHg and 4.87 mmHg. For the same compound, under setting [3], the “The first contraction latency period” value worked out at 1800 s and the “The first ejaculation latency period” value is reported as 1800 s.

Take `Fc1ccc2c(N3CCN(CCCn4nc5ccccc5n4)CC3)noc2c1` [Compound A005]: under setting [1], the “Actual number of ejaculations” value was 0 (2×) and 4 (2×) and 5; the “Number of the seminal vesicle contractions” value is 2 and 3 and 6 and 8 and 7; the “Seminal vesicle basal pressure” value was 3.99 mmHg and 3.98 mmHg and 5.98 mmHg and 5.59 mmHg and 5.18 mmHg; the “Seminal vesicle peak pressure” value was 4.09 mmHg and 4.29 mmHg and 16.56 mmHg and 17.17 mmHg and 18.08 mmHg. Moreover, under setting [1], the “The first contraction latency period” value is 1458 s and 1525 s and 707 s and 658 s and 738 s; the “The first ejaculation latency period” value was 1800 s (2×) and 965 s and 878 s and 806 s. Moreover, under setting [2], the “Actual number of ejaculations” value is 5 (2×) and 3 and 0 (2×); the “Number of the seminal vesicle contractions” value is 6 and 7 and 4 and 0 (2×); the “Seminal vesicle basal pressure” value is 5.89 mmHg and 6.05 mmHg and 5.15 mmHg and 3.93 mmHg and 4.22 mmHg; the “Seminal vesicle peak pressure” value is 18.99 mmHg and 19.11 mmHg and 12.85 mmHg and 4.09 mmHg and 4.76 mmHg. Further, under setting [2], the “The first contraction latency period” value is 778 s and 855 s and 1005 s and 1800 s (2×); the “The first ejaculation latency period” value was 845 s and 903 s and 1175 s and 1800 s (2×). Besides, under setting [3], the “Actual number of ejaculations” value is on record as 0; the “Number of the seminal vesicle contractions” value is 0 (4×) and 1; the “Seminal vesicle basal pressure” value was 4.16 mmHg and 4.27 mmHg and 4.65 mmHg and 4.32 mmHg and 3.93 mmHg; the “Seminal vesicle peak pressure” value was 5.26 mmHg and 5.22 mmHg and 7.15 mmHg and 4.83 mmHg and 4.89 mmHg. Besides, under setting [3], the “The first contraction latency period” value is 1800 s (4×) and 1655 s; the “The first ejaculation latency period” value is on record as 1800 s.
